According to paper PMC6465099 (Clinical Pharmacology and Therapeutics, 2018):

Assays:
MATE2-K = MATE2-K (Homo sapiens, UniProt Q86VL8); assay: Inhibition of MATE2-K-mediated; format: cell-based; conditions: sum of unbound Cmax/IC50 of abemaciclib, M2 and M20
[1] = Clinical study: serum creatinine and estimated GFR after abemaciclib; format: in vivo, human
[2] = Clinical study: renal injury biomarkers; format: in vivo, human
[3] = patients with cancer and healthy subjects; cited from earlier work
OCT2 = biological target: T1, OCT2 (Homo sapiens, UniProt O15244); assay: Inhibition of OCT2-mediated; format: cell-based; conditions: sum of unbound Cmax/IC50 of abemaciclib, M2 and M20
T1 sequence (O15244 1-555): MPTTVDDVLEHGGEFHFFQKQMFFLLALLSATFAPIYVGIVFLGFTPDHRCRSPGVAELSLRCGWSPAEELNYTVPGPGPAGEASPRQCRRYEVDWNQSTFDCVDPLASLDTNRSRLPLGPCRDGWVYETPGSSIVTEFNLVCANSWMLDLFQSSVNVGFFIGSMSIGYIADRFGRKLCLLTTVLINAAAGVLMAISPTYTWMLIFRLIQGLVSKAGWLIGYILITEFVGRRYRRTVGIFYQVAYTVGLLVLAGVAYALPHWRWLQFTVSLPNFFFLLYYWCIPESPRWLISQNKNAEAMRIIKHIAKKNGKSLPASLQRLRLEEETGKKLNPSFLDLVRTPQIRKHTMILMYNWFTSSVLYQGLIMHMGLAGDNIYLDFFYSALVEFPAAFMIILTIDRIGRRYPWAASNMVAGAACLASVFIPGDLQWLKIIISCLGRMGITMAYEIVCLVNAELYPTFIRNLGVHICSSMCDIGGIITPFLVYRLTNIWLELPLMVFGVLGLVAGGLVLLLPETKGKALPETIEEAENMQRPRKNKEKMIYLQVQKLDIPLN

MATE1 = biological target: T2, MATE1 (Homo sapiens, UniProt Q96FL8); assay: Inhibition of MATE1-mediated; format: cell-based; conditions: sum of unbound Cmax/IC50 of abemaciclib, M2 and M20
T2 sequence (Q96FL8 1-570): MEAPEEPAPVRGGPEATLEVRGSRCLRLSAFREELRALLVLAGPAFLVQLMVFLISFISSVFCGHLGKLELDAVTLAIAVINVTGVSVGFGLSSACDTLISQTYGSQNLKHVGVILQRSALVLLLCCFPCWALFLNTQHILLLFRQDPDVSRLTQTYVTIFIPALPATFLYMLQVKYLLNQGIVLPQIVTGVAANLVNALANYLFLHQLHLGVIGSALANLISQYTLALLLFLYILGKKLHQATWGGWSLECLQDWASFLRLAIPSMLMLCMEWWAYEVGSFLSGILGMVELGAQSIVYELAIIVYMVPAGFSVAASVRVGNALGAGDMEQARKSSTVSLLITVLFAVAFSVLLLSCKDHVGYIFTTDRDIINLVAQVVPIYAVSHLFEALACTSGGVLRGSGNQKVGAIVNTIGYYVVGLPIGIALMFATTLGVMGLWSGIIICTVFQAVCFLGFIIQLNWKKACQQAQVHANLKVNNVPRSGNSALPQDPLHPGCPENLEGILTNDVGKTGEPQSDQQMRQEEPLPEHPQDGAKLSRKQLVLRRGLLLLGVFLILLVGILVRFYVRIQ

[4] = Clinical crossover study: iohexol clearance; format: in vivo, human; conditions: for clearance: human, plasma, intravenous

Sequence of MATE2-K (Q86VL8 1-566 isoform Q86VL8-3): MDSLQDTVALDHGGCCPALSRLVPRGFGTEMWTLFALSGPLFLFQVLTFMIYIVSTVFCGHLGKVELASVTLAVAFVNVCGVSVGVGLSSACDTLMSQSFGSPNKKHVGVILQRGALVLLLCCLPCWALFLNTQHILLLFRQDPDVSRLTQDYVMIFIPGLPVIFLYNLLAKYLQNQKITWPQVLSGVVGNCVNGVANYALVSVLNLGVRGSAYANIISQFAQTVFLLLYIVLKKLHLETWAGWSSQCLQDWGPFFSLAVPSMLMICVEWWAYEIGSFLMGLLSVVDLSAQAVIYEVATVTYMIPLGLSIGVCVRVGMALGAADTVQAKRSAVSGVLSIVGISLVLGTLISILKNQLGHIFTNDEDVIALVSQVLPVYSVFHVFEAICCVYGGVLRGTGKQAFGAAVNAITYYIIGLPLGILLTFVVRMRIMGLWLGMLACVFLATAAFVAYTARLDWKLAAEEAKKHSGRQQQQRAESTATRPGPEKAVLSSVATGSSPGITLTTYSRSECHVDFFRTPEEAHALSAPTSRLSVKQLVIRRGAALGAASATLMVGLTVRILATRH

Structure (SMILES) | Combined DDI index, MATE2-K (MATE2-K) | eGFR (CKD-EPI equation using SCr) ([1]; abemaciclib in combination with iohexol) [mL/minute/1.73 m^2] | eGFR (CKD-EPI equation using SCr) ([1]; abemaciclib in combination with metformin) [mL/minute/1.73 m^2] | eGFR calculated using serum cystatin-C ([1]; abemaciclib vs. placebo periods) | Mean increase in SCr concentration ([1]; between 10 and 12 hours postdose, 400 mg abemaciclib, healthy subjects) [µmol/L] | Reversible increase in SCr expected in patients ([1]; patients dosed with abemaciclib, suggested by the findings) | Time of peak SCr elevation ([1]; post abemaciclib dose) [h] | Trends in serum cystatin-C or NGAL indicative of renal injury ([2]; abemaciclib with either metformin or iohexol) | Creatinine-normalized urinary concentrations of NGAL and KIM-1 ([2]; following abemaciclib dosing) | Reversible increase in serum creatinine over baseline [3] | Combined DDI index, OCT2 (OCT2) | Combined DDI index, MATE1 (MATE1) | Effect of coadministration on iohexol PK ([4]; 400 mg abemaciclib with iohexol) | clearance [4] [mL/min] | clearance ([4]; 3235 mg) [mL/min]
CCN1CCN(Cc2ccc(Nc3ncc(F)c(-c4cc(F)c5nc(C)n(C(C)C)c5c4)n3)nc2)CC1 [Abemaciclib] | 0.06 | 53.6 | 57.2 | did not change | 35.7 to 44.6 | 10–40% | 12 | no trends | No notable change | 15–40% | 0.03 | 0.13 | did not affect | – | –
CC(=O)N(CC(O)CO)c1c(I)c(C(=O)NCC(O)CO)c(I)c(C(=O)NCC(O)CO)c1I (stereo not drawn) [iohexol] | – | – | – | – | – | – | – | – | – | – | – | – | – | 85.6 | 89
